Where two headings read alike, the source gives them in different places.
Legend:
EGFR = EGFR (Homo sapiens, UniProt P00533); assay: ADP-Glo kinase assay, EGFR; assay type: biochemical; parameters: purchased BPS Bioscience (assay run externally by the vendor)
aurora A kinase (AURKA) = target: T1, aurora A kinase (AURKA) (Homo sapiens, UniProt O14965); assay: ADP-Glo kinase assay, Aurora A; assay type: biochemical
T1 construct: purchased BPS Bioscience (assay run externally by the vendor)
T1 sequence (O14965 1-403): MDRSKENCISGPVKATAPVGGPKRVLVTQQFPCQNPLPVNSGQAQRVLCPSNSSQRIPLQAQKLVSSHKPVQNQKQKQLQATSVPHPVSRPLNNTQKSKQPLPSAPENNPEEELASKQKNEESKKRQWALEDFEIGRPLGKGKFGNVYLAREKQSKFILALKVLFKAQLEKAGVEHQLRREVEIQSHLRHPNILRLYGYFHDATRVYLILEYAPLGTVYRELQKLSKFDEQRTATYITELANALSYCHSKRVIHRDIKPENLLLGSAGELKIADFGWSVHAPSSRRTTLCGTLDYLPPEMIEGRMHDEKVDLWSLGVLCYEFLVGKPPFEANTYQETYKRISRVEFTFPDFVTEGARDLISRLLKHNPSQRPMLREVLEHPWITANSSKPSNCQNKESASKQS

Sequence of EGFR (P00533 25-1210): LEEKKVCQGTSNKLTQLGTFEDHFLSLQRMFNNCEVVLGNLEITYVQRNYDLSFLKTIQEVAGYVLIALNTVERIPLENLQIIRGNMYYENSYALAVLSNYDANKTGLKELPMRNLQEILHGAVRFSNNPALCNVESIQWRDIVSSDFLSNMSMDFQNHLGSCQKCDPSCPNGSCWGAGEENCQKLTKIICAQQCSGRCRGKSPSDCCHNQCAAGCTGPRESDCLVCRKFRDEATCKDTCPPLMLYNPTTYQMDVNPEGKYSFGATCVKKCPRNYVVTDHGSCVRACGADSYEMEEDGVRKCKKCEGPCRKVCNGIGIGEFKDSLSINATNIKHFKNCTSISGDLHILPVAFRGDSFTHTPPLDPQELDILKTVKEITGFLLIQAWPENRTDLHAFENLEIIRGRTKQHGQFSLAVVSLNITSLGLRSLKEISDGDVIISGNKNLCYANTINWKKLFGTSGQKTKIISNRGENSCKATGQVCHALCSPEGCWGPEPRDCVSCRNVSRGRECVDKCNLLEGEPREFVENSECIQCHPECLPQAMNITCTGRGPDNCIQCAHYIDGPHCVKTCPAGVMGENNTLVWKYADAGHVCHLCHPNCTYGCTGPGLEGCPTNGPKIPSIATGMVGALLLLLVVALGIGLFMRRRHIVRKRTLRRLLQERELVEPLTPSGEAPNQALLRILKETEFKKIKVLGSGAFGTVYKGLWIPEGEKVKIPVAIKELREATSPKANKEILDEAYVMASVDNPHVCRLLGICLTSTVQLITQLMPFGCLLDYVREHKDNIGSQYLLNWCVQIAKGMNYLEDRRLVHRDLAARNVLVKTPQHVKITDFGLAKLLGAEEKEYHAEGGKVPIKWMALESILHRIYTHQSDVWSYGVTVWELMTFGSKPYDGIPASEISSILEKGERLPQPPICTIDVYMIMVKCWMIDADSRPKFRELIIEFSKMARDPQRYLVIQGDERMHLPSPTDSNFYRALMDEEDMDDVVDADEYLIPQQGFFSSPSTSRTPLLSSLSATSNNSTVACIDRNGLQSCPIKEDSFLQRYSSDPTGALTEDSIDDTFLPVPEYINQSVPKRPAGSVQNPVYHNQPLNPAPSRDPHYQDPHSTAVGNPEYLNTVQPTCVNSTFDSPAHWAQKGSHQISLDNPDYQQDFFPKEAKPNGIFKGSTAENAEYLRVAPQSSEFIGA

Clc1ccc(Nc2ncnc3[nH]ccc23)cc1 [Compound 4, N^4-(4-chlorophenyl)-7H-pyrrolo[2,3-d]pyrimidine-4-amine]
IC50 (EGFR; 10 µM ATP, triplicate, read-out: EGFR IC50 ± SD): 84.9 ± 15.9 nM
IC50 (EGFR; 10 µM ATP/0.2 mg/ml Poly-Glu-Tyr, read-out: EGFR IC50 (dose-response curve, supplement)): 84.5 nM
EGFR % Activity Set1 (EGFR; Log[nM] 0): 102%
EGFR % Activity Set2 (EGFR; Log[nM] 0): 96%
EGFR % Activity Set3 (EGFR; Log[nM] 0): 97%
EGFR % Activity Set1 (EGFR; Log[nM] 1.0): 102%
EGFR % Activity Set2 (EGFR; Log[nM] 1.0): 97%
EGFR % Activity Set3 (EGFR; Log[nM] 1.0): 96%
EGFR % Activity Set1 (EGFR; Log[nM] 1.5): 65%
EGFR % Activity Set2 (EGFR; Log[nM] 1.5): 61%
EGFR % Activity Set3 (EGFR; Log[nM] 1.5): 64%
EGFR % Activity Set1 (EGFR; Log[nM] 2.0): 50%
EGFR % Activity Set2 (EGFR; Log[nM] 2.0): 45%
EGFR % Activity Set3 (EGFR; Log[nM] 2.0): 52%
EGFR % Activity Set1 (EGFR; Log[nM] 2.5): 19%
EGFR % Activity Set2 (EGFR; Log[nM] 2.5): 19%
EGFR % Activity Set3 (EGFR; Log[nM] 2.5): 22%
EGFR % Activity Set1 (EGFR; Log[nM] 3.0): 10%
EGFR % Activity Set2 (EGFR; Log[nM] 3.0): 10%
EGFR % Activity Set3 (EGFR; Log[nM] 3.0): 12%
EGFR % Activity Set1 (EGFR; Log[nM] 3.5): 4%
EGFR % Activity Set2 (EGFR; Log[nM] 3.5): 4%
EGFR % Activity Set3 (EGFR; Log[nM] 3.5): 4%
EGFR % Activity Set1 (EGFR; Log[nM] 4.0): 2%
EGFR % Activity Set2 (EGFR; Log[nM] 4.0): 2%
EGFR % Activity Set3 (EGFR; Log[nM] 4.0): 2%
EGFR % Activity Set1 (EGFR; Log[nM] 4.5): 1%
EGFR % Activity Set2 (EGFR; Log[nM] 4.5): 1%
EGFR % Activity Set3 (EGFR; Log[nM] 4.5): 1%
EGFR % Activity Set1 (EGFR; Log[nM] 5.0): 1%
EGFR % Activity Set2 (EGFR; Log[nM] 5.0): 1%
EGFR % Activity Set3 (EGFR; Log[nM] 5.0): 1%
IC50 (aurora A kinase (AURKA); 10 µM ATP, triplicate, read-out: AURKA IC50 ± SD): 5150 ± 370 nM
IC50 (aurora A kinase (AURKA); 10 µM ATP/0.2 mg/ml Kemptide, read-out: Aurora A IC50 (dose-response curve, supplement)): 5200 nM
Aurora A % Activity Set1 (aurora A kinase (AURKA); Log[nM] 0): 98%
Aurora A % Activity Set2 (aurora A kinase (AURKA); Log[nM] 0): 101%
Aurora A % Activity Set3 (aurora A kinase (AURKA); Log[nM] 0): 97%
Aurora A % Activity Set1 (aurora A kinase (AURKA); Log[nM] 1.0): 99%
Aurora A % Activity Set2 (aurora A kinase (AURKA); Log[nM] 1.0): 98%
Aurora A % Activity Set3 (aurora A kinase (AURKA); Log[nM] 1.0): 100%
Aurora A % Activity Set1 (aurora A kinase (AURKA); Log[nM] 1.5): 104%
Aurora A % Activity Set2 (aurora A kinase (AURKA); Log[nM] 1.5): 108%
Aurora A % Activity Set3 (aurora A kinase (AURKA); Log[nM] 1.5): 102%
Aurora A % Activity Set1 (aurora A kinase (AURKA); Log[nM] 2.0): 105%
Aurora A % Activity Set2 (aurora A kinase (AURKA); Log[nM] 2.0): 107%
Aurora A % Activity Set3 (aurora A kinase (AURKA); Log[nM] 2.0): 104%
Aurora A % Activity Set1 (aurora A kinase (AURKA); Log[nM] 2.5): 103%
Aurora A % Activity Set2 (aurora A kinase (AURKA); Log[nM] 2.5): 99%
Aurora A % Activity Set3 (aurora A kinase (AURKA); Log[nM] 2.5): 101%
Aurora A % Activity Set1 (aurora A kinase (AURKA); Log[nM] 3.0): 88%
Aurora A % Activity Set2 (aurora A kinase (AURKA); Log[nM] 3.0): 93%
Aurora A % Activity Set3 (aurora A kinase (AURKA); Log[nM] 3.0): 86%
Aurora A % Activity Set1 (aurora A kinase (AURKA); Log[nM] 3.5): 66%
Aurora A % Activity Set2 (aurora A kinase (AURKA); Log[nM] 3.5): 69%
Aurora A % Activity Set3 (aurora A kinase (AURKA); Log[nM] 3.5): 68%
Aurora A % Activity Set1 (aurora A kinase (AURKA); Log[nM] 4.0): 25%
Aurora A % Activity Set2 (aurora A kinase (AURKA); Log[nM] 4.0): 28%
Aurora A % Activity Set3 (aurora A kinase (AURKA); Log[nM] 4.0): 25%
Aurora A % Activity Set1 (aurora A kinase (AURKA); Log[nM] 4.5): 11%
Aurora A % Activity Set2 (aurora A kinase (AURKA); Log[nM] 4.5): 11%
Aurora A % Activity Set3 (aurora A kinase (AURKA); Log[nM] 4.5): 11%
Aurora A % Activity Set1 (aurora A kinase (AURKA); Log[nM] 5.0): 9%
Aurora A % Activity Set2 (aurora A kinase (AURKA); Log[nM] 5.0): 10%
Aurora A % Activity Set3 (aurora A kinase (AURKA); Log[nM] 5.0): 9%

CN[C@@H]1C[C@H]2O[C@@](C)([C@@H]1OC)n1c3ccccc3c3c4c(c5c6ccccc6n2c5c31)C(=O)NC4 [Staurosporine, staurosporine, reference compound]
Aurora A % Activity Set1 (aurora A kinase (AURKA); Log[nM] 0): 109%
Aurora A % Activity Set2 (aurora A kinase (AURKA); Log[nM] 0): 103%
Aurora A % Activity Set3 (aurora A kinase (AURKA); Log[nM] 0): 109%
Aurora A % Activity Set1 (aurora A kinase (AURKA); Log[nM] 1.0): 102%
Aurora A % Activity Set2 (aurora A kinase (AURKA); Log[nM] 1.0): 101%
Aurora A % Activity Set3 (aurora A kinase (AURKA); Log[nM] 1.0): 102%
Aurora A % Activity Set1 (aurora A kinase (AURKA); Log[nM] 1.5): 73%
Aurora A % Activity Set2 (aurora A kinase (AURKA); Log[nM] 1.5): 69%
Aurora A % Activity Set3 (aurora A kinase (AURKA); Log[nM] 1.5): 85%
Aurora A % Activity Set2 (aurora A kinase (AURKA); Log[nM] 2.0): 9%
Aurora A % Activity Set1 (aurora A kinase (AURKA); Log[nM] -0.5): 98%
Aurora A % Activity Set2 (aurora A kinase (AURKA); Log[nM] -0.5): 100%
Aurora A % Activity Set3 (aurora A kinase (AURKA); Log[nM] -0.5): 102%
Aurora A % Activity Set1 (aurora A kinase (AURKA); Log[nM] -1.0): 100%
Aurora A % Activity Set2 (aurora A kinase (AURKA); Log[nM] -1.0): 93%
Aurora A % Activity Set3 (aurora A kinase (AURKA); Log[nM] -1.0): 102%

Reference: publication PMC6009956, “Design, synthesis and biological activity of N^4-phenylsubstituted-7H-pyrrolo[2,3-d]pyrimidin-4-amines as dual inhibitors of aurora kinase A and epidermal growth factor receptor kinase” (Journal of Enzyme Inhibition and Medicinal Chemistry, 2017)
